Source: patent US20130137116A1, “METHOD AND KIT FOR DETECTING THE EARLY ONSET OF RENAL TUBULAR CELL INJURY” (priority 2003, published 2013)

Columns and labels:
male Swiss-Webster mice = details: larger dose (20 μg/kg as printed), previously shown; cited from earlier work
rat = details: after the initial insult; cited from earlier work
[1] = test system: Human renal proximal tubular epithelial cells (RPTEC); experiment: Mild ATP depletion of cultured cells (in vitro ischemia) with antimycin A; assay type: cell-based; details: 1 μm antimycin; for ATP level (partial ATP depletion): mean+/-SD from four experiments
Procedure: Human renal proximal tubular epithelial cells (RPTEC) were obtained from Clonetics (San Diego, Calif.). Cells were grown in Renal Epithelial Cell Basal Medium supplemented with REGM complex ([…] hydrocortisone, 10 pg/ml hEGF, 0.5 μg/ml epinephrine, 6.5 pg/ml triiodothyronine, 10 μg/ml transferrin, 5 μg/ml insulin, 1 μg/ml gentamicin sulfate, and 2% FBS), as recommended by the manufacturer.
We modified previously described protocols of in vitro ischemia by ATP depletion with inhibitors of oxidative phosphorylation (8, 9). On the second day post-confluence, RPTEC cells were incubated with 1 μm antimycin A (Sigma) for varying periods of time up to 6 h. […] ATP levels were monitored using a luciferase-based assay kit (Sigma), and expressed as a percentage of control values. Cells were harvested at various time points of ATP depletion, and analyzed for NGAL mRNA expression by RT-PCR and NGAL protein expression by Western analysis. The secretion of NGAL into the culture medium was also monitored.
In order to confirm the origin of NGAL from ischemic proximal tubule cells, we modified previously described protocols of in vitro ischemia by ATP depletion in cultured human proximal tubule cells (RPTEC). […] NGAL mRNA was just detectable in resting cells.

Compound | Time to tubule cell necrosis and apoptosis, and impaired renal function (male Swiss-Webster mice) | Time at which KIM-1 is qualitatively detectable (rat) | ATP level (partial ATP depletion) ([1]; by 6 h) | Morphological consequences of mild ATP depletion ([1]; up to 6 h) | ATP level (partial ATP depletion) ([1]; within 1 h) | NGAL mRNA induction by RT-PCR ([1]; following partial ATP depletion)
N.N.[Cl][Pt][Cl] [cisplatin] | 3 to 4 days | 24 to 48 h |  |  |  | 
antimycin A |  |  | about 75±3 % of control | No morphological consequences | about 83±3 % of control | rapid and duration-dependent induction
